Legend:
ms45 mutant = conditions: transgenic ms45 maize with Ms45 under EcR-based switch; cited from earlier work
[1] = target: GAL4 DBD:CfEcR fusion protein (Choristoneura fumiferana); assay: cell-based or functional assay

| Compound | restoration of male fertility (ms45 mutant) | methoxyfenozide concentration at maximum luciferase activity, two-hybrid gene switch, tobacco protoplasts (nM methoxyfenozide) [1] |
| --- | --- | --- |
| COc1cccc(C(=O)NN(C(=O)c2cc(C)cc(C)c2)C(C)(C)C)c1C [methoxyfenozide] | able to restore male fertility |  |
| VP16 AD:LmRXR triple mutant A62S:T81H:V123I (Lm-7) fusion protein (receptor) |  | 80 |

From patent publication US8115059B1, “Gene expression modulation system for use in plants and method for modulating gene expression in plants” (University of Kentucky Research Foundation, priority 2005, dated 2012)
